From patent US11306098B2, “Substituted pyrrolo[1,2-a]pyrazines and pyrrolo[1,2-a][1,4]diazepines as TREX1 inhibitors” (VENENUM BIODESIGN, LLC, priority 2019, dated 2022)
Structures can show the parent of a compound that is named as a salt.

Assays:
[1] = target: murine TREX1 (Mus musculus (Mouse), UniProt Q91XB0); test: TREX1 Exonuclease Assay (murine enzyme); format: biochemical; conditions: murine TREX1 1 nM, FAM/BHQ1-labeled DNA oligonucleotide
Experimental: (§1) The TREX1 Exonuclease assay is an exemplary in vitro assay for measuring the activity of the TREX1 inhibitors of the present invention. In this assay, TREX1 exonuclease activity was evaluated by measuring the increase in fluorescence resulting from TREX1-catalyzed removal of a quencher from the 3′ end of a FAM-labeled DNA oligonucleotide (5′FAM-CCA CGA GAG CGT-BHQ1-3′). The assay was conducted using Wild Type (WT) human or murine TREX1 enzyme constructs corresponding to amino acids 55-297 of UniProt ID Q9NSU2-1 (SEQ ID NO: 1), or amino acids 1-242 of UniProt ID Q91XB0-1 (SEQ ID NO: 2), respectively. See, e.g., Example A.
(§2) For human TREX1, the nucleotide sequence of the gene construct was codon optimized for expression in the bacterial host. The sequence was incorporated into the pMAL-c5e vector (NEB) downstream of a solubility-promoting MBP (maltose binding protein) fusion partner. The fusion protein product was expressed in E. coli strain BL21 (DE3) (Millipore) and purified in a series of chromatographic steps. Initial steps were conducted using a dextrin sepharose affinity column followed by a Q-sepharose ion exchange column (both GE Healthcare). After the second column the MBP partner was removed by incubation with enterokinase (NEB). Further purification was carried out with the second application of a Q-sepharose column followed by a Superdex 75 (GE Healthcare) size exclusion column. Finally, a heparin sepharose column (GE Healthcare) was applied to remove contaminating nucleotides. Similar methods were used in the preparation of the murine TREX1 enzyme and are described in Example B set forth below.
(§3) To evaluate the effect of compounds on TREX1 activity, test compounds were serially diluted (11-point, 3-fold) from 10 mM stock solutions and delivered to 384-well low-volume assay plates in 80 nL DMSO using an acoustic dispenser. Next, 4 μL of human TREX1 (0.5 nM), or murine TREX1 (1 nM), diluted in assay buffer (20 mM Tris pH 7.5, 5 mM MgCl2, 100 μg/mL BSA, 0.002% Triton X-100, 2 mM DTT), was added to the assay plate. After incubating for 30 minutes, 4 μL of labeled DNA oligonucleotide (500 nM) in assay buffer was added to initiate TREX1 exonuclease activity. The reaction was allowed to proceed for 45 minutes at room temperature prior to the addition of 4 μL of 150 mM EDTA to halt TREX1 activity. Assay plates were equilibrated for an additional 30 minutes and read on an EnVision Plate Reader (Perkin Elmer) to measure fluorescence emission at 535 nm following excitation at 485 nm. Fluorescence was plotted as a function of log molar compound concentration and fit to four-parameter dose-response equation to determine compound IC50.

[2] = target: human TREX1 (Homo sapiens (Human), UniProt Q9NSU2); test: TREX1 Exonuclease Assay (human enzyme); format: biochemical; conditions: human TREX1 0.5 nM, FAM/BHQ1-labeled DNA oligonucleotide
human TREX1, sequence (Q9NSU2 1-242): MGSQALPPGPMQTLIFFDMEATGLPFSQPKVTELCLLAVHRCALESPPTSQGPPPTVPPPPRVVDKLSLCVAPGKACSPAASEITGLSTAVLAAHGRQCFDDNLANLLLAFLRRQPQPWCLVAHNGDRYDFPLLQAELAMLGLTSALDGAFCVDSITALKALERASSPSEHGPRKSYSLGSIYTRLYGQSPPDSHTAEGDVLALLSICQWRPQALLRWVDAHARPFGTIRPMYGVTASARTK
Experimental: as §1, §2, §3

murine TREX1, sequence (Q91XB0 1-242): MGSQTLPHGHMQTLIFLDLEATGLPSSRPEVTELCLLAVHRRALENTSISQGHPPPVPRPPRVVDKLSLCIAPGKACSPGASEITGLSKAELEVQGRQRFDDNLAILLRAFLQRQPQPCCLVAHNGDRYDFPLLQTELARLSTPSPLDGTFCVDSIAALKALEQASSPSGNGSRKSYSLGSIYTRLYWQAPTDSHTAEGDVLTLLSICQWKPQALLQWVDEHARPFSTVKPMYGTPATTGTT

SMILES	IC50 [1] [µM]	IC50 [2] [µM]
CC(=O)N[C@@H]1C[C@H]2C(=O)N([C@H](CC(C)C)C(=O)NCc3ccc(Cl)c(Cl)c3)CCC(CCc3ccccc3)N2C1 (stereo partly drawn) [Example 20, (2R)-2-((8R,9aS)-8-acetamido-1-oxo-5-phenethylhexahydro-1H-pyrrolo[1,2-a][1,4]diazepin-2(3H)-yl)-N-(3,4-dichlorobenzyl)-4-methylpentanamide HCl]	10 to 100	1 to 9.99
N[C@@H]1C[C@H]2C(=O)N([C@H](CCc3nsc(=O)[nH]3)C(=O)NCc3ccc(Cl)c(Cl)c3)CCC(CCc3ccccc3)N2C1 (some centres unmarked) [Example 38]	< 1	< 1
CC(C)C[C@H](C(=O)NCc1ccc(Cl)c(Cl)c1)N1CC(CCc2ccccc2)N2C[C@H](N)C[C@H]2C1=O (stereo partly drawn) [Example 22, (2R)-2-((7R,8aS)-7-amino-1-oxo-4-phenethylhexahydropyrrolo[1,2-a]pyrazin-2(1H)-yl)-N-(3,4-dichlorobenzyl)-4-methylpentanamide.HCl]	10 to 100	10 to 100
N#CCC[C@H](C(=O)NCc1ccc(Cl)c(Cl)c1)N1CCC(CCc2ccccc2)N2C[C@H](N)C[C@H]2C1=O (some centres unmarked) [Example 45]	< 1	< 1
CC(C)C[C@H](C(=O)NS(=O)(=O)c1ccccc1)N1CCC(CCc2ccccc2)N2C[C@H](N)C[C@H]2C1=O (some centres unmarked) [Example 35]	1 to 9.99	1 to 9.99
CC(C)C[C@H](C(=O)NCc1cscn1)N1CCC(CCc2ccccc2)N2C[C@H](N)C[C@H]2C1=O (some centres unmarked) [Example 30]	10 to 100	1 to 9.99
CC(C)C[C@H](C(=O)NCc1ccc(F)cc1)N1CCC(CCc2ccccc2)N2C[C@H](N)C[C@H]2C1=O (some centres unmarked) [Example 34]	1 to 9.99	< 1
CC(C)C[C@H](C(=O)NCc1ccc(Cl)c(Cl)c1)N1CCC(C)N2C[C@H](N)C[C@H]2C1=O (some centres unmarked) [Example 13]	10 to 100	10 to 100
N[C@@H]1C[C@H]2C(=O)N([C@H](CCC(=O)O)C(=O)NCc3ccc(C(F)(F)F)cc3)CCC(CCc3ccccc3)N2C1 (single isomer, unassigned) [Example 2A]	10 to 100	10 to 100
Cc1nnc(CC[C@H](C(=O)NCc2ccc(Cl)c(Cl)c2)N2CCC(CCc3ccccc3)N3C[C@H](N)C[C@H]3C2=O)[nH]1 (some centres unmarked) [Example 48]	< 1	< 1
CC(C)C[C@H](C(=O)NCc1ccc(Cl)c(Cl)c1)N1CCC(CCc2ccccc2)N(CCN)CC1=O (some centres unmarked) [Example 47]	10 to 100	1 to 9.99
CC(C)C[C@H](C(=O)N[C@H](C)c1ccccc1)N1CCC(CCc2ccccc2)N2C[C@H](N)C[C@H]2C1=O (some centres unmarked) [Example 24]	10 to 100	10 to 100
CC(C)C[C@H](C(=O)NCc1ccccc1Cl)N1CCC(CCc2ccccc2)N2C[C@H](N)C[C@H]2C1=O (some centres unmarked) [Example 27]	10 to 100	1 to 9.99
CC(C)C[C@H](C(=O)NCc1ccc(Cl)c(Cl)c1)N1CCC(CCc2ccccc2)N2C[C@H](N(C)C)C[C@H]2C1=O (stereo partly drawn) [Example 21, (2R)—N-(3,4-dichlorobenzyl)-2-((8R,9aS)-8-(dimethylamino)-1-oxo-5-phenethylhexahydro-1H-pyrrolo[1,2-a][1,4]diazepin-2(3H)-yl)-4-methylpentanamide HCl]	> 100	10 to 100
CC(C)C[C@H](C(=O)NCc1ccc(Cl)cc1)N1CCC(CCc2ccccc2)N2C[C@H](N)C[C@H]2C1=O (some centres unmarked) [Example 46]	1 to 9.99	< 1
CC(C)C[C@H](C(=O)NCCc1ccc(Cl)c(Cl)c1)N1CCC(CCc2ccccc2)N2C[C@H](N)C[C@H]2C1=O (some centres unmarked) [Example 37]	1 to 9.99	< 1
CC(C)C[C@H](C(=O)NCc1cnccn1)N1CCC(CCc2ccccc2)N2C[C@H](N)C[C@H]2C1=O (some centres unmarked) [Example 28]	10 to 100	1 to 9.99
CC(C)C[C@H](C(=O)NCc1ccc(Cl)cc1Cl)N1CCC(CCc2ccccc2)N2C[C@H](N)C[C@H]2C1=O (some centres unmarked) [Example 31]	1 to 9.99	< 1
CC(C)C[C@H](C(=O)NCCc1ccccc1)N1CCC(CCc2ccccc2)N2C[C@H](N)C[C@H]2C1=O (some centres unmarked) [Example 23]	10 to 100	1 to 9.99
